Reference: ChEMBL document CHEMBL1147179, “Synthesis and antimicrobial activity of some novel phenyl and benzimidazole substituted benzyl ethers” (2007)
In brackets after ≈: the same amount, converted by molar mass. Activity calls are given as the source filed them. The rule behind the calls is not given here.

Key:
Escherichia coli = assay: Antibacterial activity against Escherichia coli ATCC 25922 at 100 ug/ml by diffusion method; type: functional, organism-based
Staphylococcus aureus [1] = assay: Antibacterial activity against Staphylococcus aureus ATCC 25923 by macro-broth dilution assay; type: functional
Staphylococcus aureus [2] = assay: Antibacterial activity against methicillin-resistant Staphylococcus aureus ATCC 43300 by macro-broth dilution assay; type: functional
Candida albicans = assay: Antifungal activity against Candida albicans ATCC 10231 by macro-broth dilution assay; type: functional
Pichia kudriavzevii = assay: Antifungal activity against Candida krusei ATCC 6258 by macro-broth dilution assay; type: functional

| Compound | Activity (Escherichia coli) | MIC (Staphylococcus aureus [1]) [µg/mL] | MIC (Staphylococcus aureus [2]) [µg/mL] | MIC (Candida albicans) [µg/mL] | MIC (Pichia kudriavzevii) [µg/mL] |
| --- | --- | --- | --- | --- | --- |
| O=C(O)c1cn(C2CC2)c2cc(N3CCNCC3)c(F)cc2c1=O | inactive |  |  |  |  |
| Clc1cccc(Cl)c1COC(Cn1cnc2ccccc21)c1ccccc1 (stereo unspecified) | inactive | 3.12 (≈ 7.85 µM) | 6.25 (≈ 15.7 µM) | 12.5 (≈ 31.5 µM) | 12.5 (≈ 31.5 µM) |
| Clc1ccc(COC(Cn2cnc3ccccc32)c2ccccc2)cc1Cl (stereo unspecified) | inactive | 3.12 (≈ 7.85 µM) | 25 (≈ 62.9 µM) | 12.5 (≈ 31.5 µM) | 25 (≈ 62.9 µM) |
| Clc1ccc(COC(Cn2ccnc2)c2ccc(Cl)cc2Cl)c(Cl)c1 (stereo unspecified) [MICONAZOLE] | inactive |  |  | 0.19 (≈ 0.457 µM) | 0.78 (≈ 1.87 µM) |
| Fc1ccc(COC(Cn2cnc3ccccc32)c2ccccc2)cc1 (stereo unspecified) | inactive | 12.5 (≈ 36.1 µM) | 25 (≈ 72.2 µM) | 25 (≈ 72.2 µM) | 25 (≈ 72.2 µM) |
| c1ccc(COC(Cn2cnc3ccccc32)c2ccccc2)cc1 (stereo unspecified) | inactive | 25 (≈ 76.1 µM) | 25 (≈ 76.1 µM) | 25 (≈ 76.1 µM) | 25 (≈ 76.1 µM) |
| Brc1ccc(COC(Cn2cnc3ccccc32)c2ccccc2)cc1 (stereo unspecified) | inactive | 3.12 (≈ 7.66 µM) | 12.5 (≈ 30.7 µM) | 25 (≈ 61.4 µM) | 25 (≈ 61.4 µM) |
| Clc1ccc(COC(Cn2cnc3ccccc32)c2ccccc2)c(Cl)c1 (stereo unspecified) | inactive | 3.12 (≈ 7.85 µM) | 12.5 (≈ 31.5 µM) | 25 (≈ 62.9 µM) | 25 (≈ 62.9 µM) |
| OC(Cn1cncn1)(Cn1cncn1)c1ccc(F)cc1F [FLUCONAZOLE] | inactive |  |  | 0.78 (≈ 2.55 µM) | 25 (≈ 81.6 µM) |
| CC1(C)S[C@@H]2[C@H](NC(=O)[C@H](N)c3ccccc3)C(=O)N2[C@H]1C(=O)O [AMPICILLIN] | inactive | 0.78 (≈ 2.23 µM) | 25 (≈ 71.5 µM) |  |  |
| FC(F)(F)c1ccc(COC(Cn2cnc3ccccc32)c2ccccc2)cc1 (stereo unspecified) | inactive | 6.25 (≈ 15.8 µM) | 12.5 (≈ 31.5 µM) | 25 (≈ 63.1 µM) | 12.5 (≈ 31.5 µM) |
| Clc1ccc(COC(Cn2cnc3ccccc32)c2ccccc2)cc1 (stereo unspecified) | inactive | 3.12 (≈ 8.6 µM) | 12.5 (≈ 34.4 µM) | 25 (≈ 68.9 µM) | 25 (≈ 68.9 µM) |
| Clc1ccc(Cl)c(COC(Cn2cnc3ccccc32)c2ccccc2)c1 (stereo unspecified) | inactive |  |  |  |  |
